Source: US5173496A, “Therapeutic preparations containing indazole derivatives” (ICI Pharma, priority 1987, dated 1992)

Experiments:
[1] = biological target: T1, 5-LO isolated from guinea pig neutrophils (Cavia porcellus, UniProt A0A286X958); test: Test (a): in vitro spectrophotometric enzyme assay, cell free system, 5-LO isolated from guinea pig neutrophils; type: biochemical
T1 construct: 5-LO isolated from guinea pig neutrophils; from tissue; host or cells: guinea pig neutrophils
T1 sequence (A0A286X958 1-674): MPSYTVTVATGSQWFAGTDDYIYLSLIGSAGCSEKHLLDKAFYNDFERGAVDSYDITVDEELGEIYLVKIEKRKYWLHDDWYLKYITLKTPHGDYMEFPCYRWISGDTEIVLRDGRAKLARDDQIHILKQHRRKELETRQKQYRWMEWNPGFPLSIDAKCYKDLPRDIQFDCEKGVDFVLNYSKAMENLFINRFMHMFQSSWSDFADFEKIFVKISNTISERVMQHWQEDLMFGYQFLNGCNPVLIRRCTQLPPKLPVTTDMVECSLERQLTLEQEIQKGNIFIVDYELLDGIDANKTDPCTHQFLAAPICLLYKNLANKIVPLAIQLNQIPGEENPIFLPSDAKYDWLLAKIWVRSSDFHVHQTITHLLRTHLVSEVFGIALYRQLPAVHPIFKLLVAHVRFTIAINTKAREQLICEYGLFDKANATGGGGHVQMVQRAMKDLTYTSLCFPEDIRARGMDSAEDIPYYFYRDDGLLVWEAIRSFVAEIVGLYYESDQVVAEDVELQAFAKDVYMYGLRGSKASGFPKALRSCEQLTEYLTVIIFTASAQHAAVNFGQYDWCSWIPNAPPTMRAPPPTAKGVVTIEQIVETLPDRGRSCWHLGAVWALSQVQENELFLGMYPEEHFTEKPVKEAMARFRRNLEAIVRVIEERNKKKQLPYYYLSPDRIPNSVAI
Source text: a) An in vitro spectrophotometric enzyme assay system, which assesses the inhibitory properties of a test compound in a cell free system using 5-LO isolated from guinea pig neutrophils and as described by D. Aharony and R. L. Stein (J. Biol. Chem., 1986, 261(25), 11512-11519). This test provides a measure of the intrinsic inhibitory properties against soluble 5-LO in an extracellular environment.

[2] = biological target: T2, 5-LO (Rattus norvegicus, UniProt P12527); test: Test (c): ex vivo assay, oral dosing, blood A23187 challenge, LTB4 radioimmunoassay; type: in vivo
T2 construct: challenge with A23187 and radioimmunoassay of LTB4 and PGE2; endogenous in cells; host or cells: blood collected after oral dosing, heparinised
T2 sequence (P12527 1-673): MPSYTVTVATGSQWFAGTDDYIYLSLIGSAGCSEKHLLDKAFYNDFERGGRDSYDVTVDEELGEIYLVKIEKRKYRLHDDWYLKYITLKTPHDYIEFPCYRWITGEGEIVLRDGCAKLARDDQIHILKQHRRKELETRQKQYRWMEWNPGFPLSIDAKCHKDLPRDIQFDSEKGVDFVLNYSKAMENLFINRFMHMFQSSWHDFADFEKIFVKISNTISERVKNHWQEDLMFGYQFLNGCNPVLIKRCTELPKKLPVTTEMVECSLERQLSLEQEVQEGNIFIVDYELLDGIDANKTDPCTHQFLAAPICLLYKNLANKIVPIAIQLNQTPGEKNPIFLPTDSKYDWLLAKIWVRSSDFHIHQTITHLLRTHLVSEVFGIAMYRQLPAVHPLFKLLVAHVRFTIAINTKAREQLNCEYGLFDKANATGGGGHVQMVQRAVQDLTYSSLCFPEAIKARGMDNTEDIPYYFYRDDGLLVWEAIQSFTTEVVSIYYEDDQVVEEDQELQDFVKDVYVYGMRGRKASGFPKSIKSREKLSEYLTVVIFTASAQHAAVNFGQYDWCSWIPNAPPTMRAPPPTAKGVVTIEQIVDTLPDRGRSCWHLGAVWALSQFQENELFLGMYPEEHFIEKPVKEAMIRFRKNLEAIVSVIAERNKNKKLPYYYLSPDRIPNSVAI
Procedure: (§1) b) An in vitro assay system involving incubating a test compound with heparinised rat blood, prior to challenge with the calcium ionophore A23187 and then indirectly measuring the inhibitory effects on 5-LO by assaying the amount of LTB4 using the specific radioimmunoassay described by Carey and Forder (F. Carey and R. A. Forder, Brit. J. Pharmacol. 1985, 84, 34P) which involves the use of a protein-LTB4 conjugate produced using the procedure of Young et alia (Prostaglandins, 1983, 26(4), 605-613). The effects of a test compound on the enzyme cyclooxygenase (which is involved in the alternative metabolic pathway for arachidonic acid and gives rise to prostaglandins, thromboxanes and related metabolites) may be measured at the same time using the specific radioimmunoassay for prostaglandin E2 (PGE2) described by Carey and Forder (see above). This test provides an indication of the effects of a test compound against 5-LO and also cyclooxygenase in the presence of blood cells and proteins. It permits the selectivity of the inhibitory effect on 5-LO or cyclooxygenase to be assessed.
(§2) c) An ex vivo assay system, which is a variation of test (b) above, involving administration of a test compound (usually orally as a suspension in carboxymethylcellulose)blood collection, heparinisation, challenge with A23187 and radioimmunoassay of LTB4 and PGE2. […]

[3] = biological target: T2, 5-LO; test: Test (b): in vitro heparinised rat blood, A23187 challenge, LTB4 radioimmunoassay (5-LO); type: cell-based
Procedure: as §1

[4] = biological target: T3, cyclooxygenase (Rattus norvegicus, UniProt Q63921); test: Test (b): in vitro heparinised rat blood, A23187 challenge, PGE2 radioimmunoassay (cyclooxygenase); type: cell-based
T3 construct: incubating a test compound with heparinised rat blood; endogenous in cells; host or cells: heparinised rat blood (platelets and leukocytes)
T3 sequence (Q63921 27-602): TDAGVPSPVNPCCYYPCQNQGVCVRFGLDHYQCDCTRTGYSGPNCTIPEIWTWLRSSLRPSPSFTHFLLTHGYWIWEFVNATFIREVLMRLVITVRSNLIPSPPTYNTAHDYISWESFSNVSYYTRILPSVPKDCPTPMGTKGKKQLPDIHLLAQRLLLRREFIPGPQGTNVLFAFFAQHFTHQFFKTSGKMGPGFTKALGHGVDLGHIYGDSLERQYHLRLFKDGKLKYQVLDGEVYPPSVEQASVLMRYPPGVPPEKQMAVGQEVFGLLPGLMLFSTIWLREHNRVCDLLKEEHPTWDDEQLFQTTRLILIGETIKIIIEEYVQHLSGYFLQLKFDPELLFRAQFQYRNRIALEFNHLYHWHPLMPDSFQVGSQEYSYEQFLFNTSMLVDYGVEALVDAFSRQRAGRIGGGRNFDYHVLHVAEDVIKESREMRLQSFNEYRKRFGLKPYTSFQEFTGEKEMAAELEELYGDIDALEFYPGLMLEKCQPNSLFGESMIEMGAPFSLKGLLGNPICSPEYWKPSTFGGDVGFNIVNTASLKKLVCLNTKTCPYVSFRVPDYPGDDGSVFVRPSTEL
Procedure: as §1

[5] = test system: carrageenin induced oedema in rat paws; test: carrageenin induced oedema in rat paws; type: in vivo; settings: dosed orally at 100 mg/kg
Source text: A specific known indazolone of formula I which is of particular interest as an inhibitor of 5-LO is, for example, 1,2-dihydro-2-benzylindazol-3-one.

[6] = test system: carrageenin induced oedema in rat paws; settings: J. Heterocyclic Chemistry, 1970, 7, 815-820; cited from earlier work
[7] = biological target: T3, cyclooxygenase; test: Test (c): ex vivo assay, oral dosing, blood A23187 challenge, PGE2 radioimmunoassay; type: in vivo
Procedure: as §1, §2

Row | SMILES | IC50 [1] [µM] | ED50 [2] [mg/kg] | IC50 [3] [µM] | IC50 [4] [µM] | significant effects in carrageenin induced oedema in rat paws [5] | anti-inflammatory properties in carrageenin induced oedema in rat paws [6] | ED50 [7] [mg/kg]
1 | O=c1c2ccccc2[nH]n1Cc1cccc2ccccc12 [Example 1, 1,2-dihydro-2-(1-naphthylmethyl)-3H-indazol-3-one] | 1.7 | 30 | 0.8 | 100 |  |  | 
2 | O=c1c2ccccc2[nH]n1Cc1ccccc1 [1,2-dihydro-2-benzylindazol-3-one] |  |  |  |  | unable to detect any significant effects | weak anti-inflammatory properties | 
3 | O=c1c2ccccc2[nH]n1Cc1cccnc1 [Example 24] |  | < 10 | < 5 | > 100 |  |  | > 100
